Assay results taken from patent US20260209175A1, “PHARMACEUTICALLY ACCEPTABLE 5-METHOXY-N,N-DIMETHYL[…] AND COMPOSITIONS THEREOF” (priority 2022, published 2026).
Counter-ions that a name gives are not always drawn. Like-named read-outs stand apart in the source and are kept apart here.

How the values were obtained:
[1] = format: physicochemical; settings: 40° C./75% RH, three days
Procedure: Salt screening studies with 24 selected counter-ions were performed to determine if 5-MeO-DMT free base is amenable to salt formation. […] Salts were examined by XRPD, TGA, DSC, 1H NMR and some by DVS analyses. Short term physical stability was examined by storage of salts at 40° C./75% RH for three days.
Physical stability stress tests were conducted on generated crystalline salts at controlled temperature and relative humidity. The powder samples were stored at 40° C./75% RH for three days. After this time samples were analysed by XRPD to see whether the physical state of salts changed during the storage.

[2] = Dynamic Vapor Sorption (DVS) analysis of salts, with XRPD of the post-DVS sample; format: physicochemical
Procedure: XRPD diffractograms were acquired using Bruker D2 Phaser diffractometer equipped with LYNXEYE detector. Samples were prepared using a zero-background sample holder. The samples were scanned from 5 to 32° (2θ) using a step size of 0.02° and a time per step of 0.13 second whilst spinning the sample. Diffractograms were plotted using the EVA program from Bruker.
DVS analyses were performed on TA Instrument DVS Q5000. Samples were added to a pre-tared metallised quartz crucible and run at 25° C. from 40% RH to 90% RH, down to zero and back to 40%. This cycle was repeated in increments of 10% RH.

[3] = Thermo-Gravimetric Analysis (TGA), thermal stability; format: physicochemical; settings: 10° C./min ramp; for thermally stable up to (TGA): nitrogen
Procedure: TGA thermograms were obtained with a TA Instrument Discovery 550 in Al pans. The heating rate used was 10° C./min linear ramp from 25 to 400° C. with a nitrogen purging at a rate of 60 ml/min. TGA thermograms were analysed using TRIOS software.

[4] = Dissolution rate in simulated nasal fluid (UV-fiber optic dissolution apparatus); format: physicochemical; settings: 5 mg in 5 mL simulated nasal fluid, 37° C., 150 RPM
Procedure: The dissolution rate was determined using a method comprising the use of a UV-fiber optic-based dissolution apparatus (one such suitable device is the Rainbow® Dynamic Dissolution Monitor by Pion Inc) and simulated nasal fluid. The simulated nasal fluid comprises 7.45 g/L NaCl, 1.29 g/L KCl, 0.32 g/L CaCl2×2H2O and deionised water.
The dissolution apparatus was set up with a 2 mm probe to measure the dissolution rate. 5 mg of the salt form was transferred into 5 mL of simulated nasal fluid, heated to a constant temperature of 37° C. and stirred at 150 RPM using a crossed stirrer bar. Measurements were taken at 3 s intervals for 130 intervals followed by 60 measurements taken at 10 s intervals for a total time of 16 minutes and 30 s. Detection of dissolution is by UV absorbance.

[5] = Solubility assessments in four different media; format: physicochemical; settings: for pH after addition of 1 ml media at 37° C. / Observation / pH after addition of 1.5 ml media at 37° C.: 250 mg per vial; for solubility relative to other salts: comparison of the salt forms
Procedure: Solubility assessments of 5-MeO-DMT oxalate, hydrobromide fumarate and benzoate were performed in four different media: […]

[6] = Oxalate salt solubility by HPLC; format: physicochemical; settings: pH 1.2 medium, simulated gastric fluid, thermodynamic from solid, mother liquors adjusted to the desired pH, read-out: Solubility (mg/mL) of free base
Procedure: The benzoate salt has a solubility of, at least, 100 mg/ml. The calibration curve of the free base was prepared between 0.031-0.500 mg/ml and can be seen in FIG. 172.
Mother liquors were adjusted to the desired pH before HPLC quantification.

[7] = salt screen / scale-up batches, DVS at 25° C

## COc1ccc2[nH]cc(CCN(C)C)c2c1 [Tartrate salt, 5-MeO-DMT tartrate]
[1]
  crystalline form by XRPD after storage: No change in the crystalline form
[2]; 25° C
  total water (moisture) uptake between 0% RH and 90% RH: approximately 3.3 % w/w
[2]; DVS isotherm, 25° C
  sorption/desorption behaviour (reversibility, hysteresis): reversible and overlap
[2]; Example 3 Pattern 1 batches
  solid form after double-cycle DVS experiment (XRPD): unchanged
  total reversible mass change between 0-90% RH: 0.6 wt. %
[2]; Example 3 Pattern 1 batches, 0-90% RH
  hygroscopicity classification: slightly hygroscopic (Pharmaceuticals that pick up between 0.2% and 2.0% moisture at 80% RH are considered slightly hygroscopic)
[2]; [7]
  hygroscopicity classification: moderately hygroscopic (Pharmaceuticals that pick up between 2.0% and 15.0% moisture at 80% RH are considered moderately hygroscopic)
[2]; salt screen / scale-up batches, DVS at 25° C, listed as tartrate salt
  hygroscopicity classification: moderately hygroscopic (Pharmaceuticals that pick up between 2.0% and 15.0% moisture at 80% RH are considered moderately hygroscopic)
[2]; salt screen batches
  solid form after DVS (XRPD post DVS): did not undergo any solid form transformation
[3]
  onset of decomposition / mass loss (TGA): 175 °C
  thermally stable up to (TGA): around 170 °C

## Br.COc1ccc2[nH]cc(CCN(C)C)c2c1 [Hydrobromide salt, 5-MeO-DMT hydrobromide]
[4]
  dissolution rate: almost instantaneous
[1]
  crystalline form by XRPD after storage: No change in crystalline form
[2]; salt produced during scale-up
  solid form after DVS (XRPD post DVS): no change in crystalline form
[2]; [7]
  hygroscopicity classification: non-hygroscopic
[5]; SNF
  pH after addition of 1 ml media at 37° C.: 8.13
[5]; SNF, 1 ml media at 37° C.
  Observation: Clear solution
[5]
  solubility relative to other salts: high solubility
[5]; pH 1.2 buffer
  pH after addition of 1 ml media at 37° C.: 8.09
[5]; pH 1.2 buffer, 1 ml media at 37° C.
  Observation: Clear solution
[5]; pH 4.5 buffer
  pH after addition of 1 ml media at 37° C.: 7.65
[5]; pH 4.5 buffer, 1 ml media at 37° C.
  Observation: Clear solution
[5]; pH 6.8 buffer
  pH after addition of 1 ml media at 37° C.: 7.82
[5]; pH 6.8 buffer, 1 ml media at 37° C.
  Observation: Clear solution
[3]
  thermally stable up to (TGA): 220 °C

## COc1ccc2[nH]cc(CCN(C)C)c2c1 [Oxalate salt, 5-MeO-DMT oxalate]
[4]
  dissolution rate: prolonged
[2]
  solid form after DVS (XRPD post DVS): no change in the crystalline form
[6]
  solubility: 19 mg/mL
[5]; SNF
  pH after addition of 1.5 ml media at 37° C.: 2.13
[5]; SNF, 1.5 ml media at 37° C.
  Observation: Suspension
[5]
  solubility relative to other salts: lowest solubility
[5]; pH 1.2 buffer
  pH after addition of 1.5 ml media at 37° C.: 1.87
[5]; pH 1.2 buffer, 1.5 ml media at 37° C.
  Observation: Suspension
[5]; pH 4.5 buffer
  pH after addition of 1.5 ml media at 37° C.: 3.05
[5]; pH 4.5 buffer, 1.5 ml media at 37° C.
  Observation: Suspension
[5]; pH 6.8 buffer
  pH after addition of 1.5 ml media at 37° C.: 3.45
[5]; pH 6.8 buffer, 1.5 ml media at 37° C.
  Observation: Suspension
